Each structure is given as a SMILES string.

A short description of data set [1]: Acute Toxicity Test (LD50). To be noted: in vivo.
The subject of data set [2] is Leukosis cells of P-388 mouse. Put plainly: Antitumor Effect Test (P-388 leukemia grafted into the abdomen of mice, ratio of survival days T/C). The format is in vivo. As to conditions: dosed into the abdomen successively for 5 days, P-388 in CDF1 or BDF1 mouse. An excerpt: [Antitumor Effect Test] Leukosis cells of P-388 mouse of 1×10^6 /mouse were grafted into the abdomen of CDF1 or BDF1 mouse, and the fixed quantity of the compound of this invention was successively dosed into the abdomen for 5 days. Each 6 mice per dose level as test groups and 30~33 mice as control groups were used. [formula]

Where [3] appears, read: Mus musculus, P388, ip, 120 h, 30 mg/kg.

For orientation: LD50 means the dose at which mortality reaches 50%. Lower therefore signals a more toxic substance. `O=C(NCCCCCCNC(=O)n1cc(F)c(=O)[nH]c1=O)NNC(=O)c1cccnc1` [Experiment 22]: the LD50 in data set [1] is greater than 400 mg/kg. Besides, the response vs control in vivo at 30 mg/kg in data set [2] (setting [3]) is 113%. In data set [2] (Mus musculus, P388, ip, 120 h), the response vs control in vivo at 60 mg/kg is 113%, the response vs control in vivo at 120 mg/kg was found to be 128% and the response vs control in vivo at 400 mg/kg was 127%.

With `O=C(NCCCCCCNC(=O)n1cc(F)c(=O)[nH]c1=O)NNC(=O)c1ccncc1` [Experiment 23], the LD50 in data set [1] is greater than 240 mg/kg. Moreover, the response vs control in vivo at 30 mg/kg in data set [2] (setting [3]) came to 109%. In data set [2] (Mus musculus, P388, ip, 120 h), the response vs control in vivo at 60 mg/kg was determined as 119%, the response vs control in vivo at 120 mg/kg stood at 124% and the response vs control in vivo at 240 mg/kg is 138%.

The molecule `O=C(Nc1ccc[n+]([O-])c1)n1cc(F)c(=O)[nH]c1=O` [Experiment 2] returned a 50% lethal dose (LD50) in data set [1] of 240 mg/kg. Besides, in data set [2] (Mus musculus, P388, ip, 120 h), the response vs control in vivo at 15 mg/kg was 127% and the response vs control in vivo at 60 mg/kg is 166%. Further, the response vs control in vivo at 30 mg/kg in data set [2] (setting [3]) turned out to be 149%.

For the molecule `CN(C)CCCNC(=O)NCCCCCCNC(=O)n1cc(F)c(=O)[nH]c1=O` [Experiment 21], in data set [1], the LD50 amounted to 120 mg/kg. In addition, in data set [2] (Mus musculus, P388, ip, 120 h), the response vs control in vivo at 15 mg/kg stood at 120% and the response vs control in vivo at 60 mg/kg was 120%. The response vs control in vivo at 30 mg/kg in data set [2] (setting [3]) came to 142%.

`NS(=O)(=O)c1ccc(NC(=O)NCCCCCCNC(=O)n2cc(F)c(=O)[nH]c2=O)cc1` [Experiment 20] yielded a 50% lethal dose (LD50) in data set [1] greater than 240 mg/kg. Moreover, the response vs control in vivo at 30 mg/kg in data set [2] (setting [3]) is 95%. In data set [2] (Mus musculus, P388, ip, 120 h), the response vs control in vivo at 60 mg/kg amounted to 110%, the response vs control in vivo at 120 mg/kg amounted to 111% and the response vs control in vivo at 240 mg/kg came to 112%.

In turn, `O=C(NCC[n+]1ccccc1)n1cc(F)c(=O)[nH]c1=O` [Experiment 14, 5-Fluoro-3,4-dihydro-2,4-dioxo-N-[2-(1-pyridino)ethyl]-1(2H-pyrimidinecarboxamide chloride] showed an LD50 in data set [1] of 120 mg/kg. In addition, in data set [2] (Mus musculus, P388, ip, 120 h), the response vs control in vivo at 15 mg/kg worked out at 169% and the response vs control in vivo at 60 mg/kg turned out to be 215%. Further, the response vs control in vivo at 30 mg/kg in data set [2] (setting [3]) is 171%.

As for `O=C(NCNC(=O)n1cc(F)c(=O)[nH]c1=O)c1ccccc1` [Experiment 13], the LD50 in data set [1] amounted to 240 mg/kg. Moreover, in data set [2] (setting [3]), the response vs control in vivo at 30 mg/kg was determined as 117%. In addition, in data set [2] (Mus musculus, P388, ip, 120 h), the response vs control in vivo at 60 mg/kg worked out at 132% and the response vs control in vivo at 120 mg/kg was 147%.

With `O=C(NCCC[n+]1ccccc1)n1cc(F)c(=O)[nH]c1=O` [Experiment 17, 5-Fluoro-3,4-dihydro-2,4-dioxo-N-[3-(1-pyridinio)propyl]-1(2H-pyrimidinecarboxamide chloride], in data set [1], the LD50 came to 240 mg/kg. The response vs control in vivo at 30 mg/kg in data set [2] (setting [3]) stood at 130%. In addition, the response vs control in vivo at 60 mg/kg in data set [2] (Mus musculus, P388, ip, 120 h) came out at 138%.

With `O=C(NCCCCCCNC(=O)n1cc(F)c(=O)[nH]c1=O)Nc1cccnc1` [Experiment 18], the LD50 in data set [1] is greater than 30 mg/kg. Besides, in data set [2] (Mus musculus, P388, ip, 120 h, 0.47 mg/kg), the response vs control in vivo at 0.47 mg/kg was 110%. In data set [2] (Mus musculus, P388, ip, 120 h, 0.94 mg/kg), the response vs control in vivo at 0.94 mg/kg was determined as 115%. The response vs control in vivo at 1.87 mg/kg in data set [2] (Mus musculus, P388, ip, 120 h, 1.87 mg/kg) was found to be 124%. For the same molecule, in data set [2] (Mus musculus, P388, ip, 120 h, 3.75 mg/kg), the response vs control in vivo at 3.75 mg/kg turned out to be 131%. Moreover, in data set [2] (Mus musculus, P388, ip, 120 h), the response vs control in vivo at 7.5 mg/kg came out at 138% and the response vs control in vivo at 15 mg/kg stood at 139%.

In data set [1], `O=C(Nc1cccs1)n1cc(F)c(=O)[nH]c1=O` [Experiment 1] showed a median lethal dose (LD50) greater than 240 mg/kg. The “T/C (ratio of survival days)” value in data set [2] (30 mg/kg) came to 129%. The response vs control in vivo at 30 mg/kg in data set [2] (setting [3]) was determined as 129%. In addition, the response vs control in vivo at 60 mg/kg in data set [2] (Mus musculus, P388, ip, 120 h) is 138%.

Turning to `O=C(NCCCCCCNC(=O)n1cc(F)c(=O)[nH]c1=O)Nc1ccccn1` [Experiment 19], the median lethal dose (LD50) in data set [1] was greater than 240 mg/kg. Further, in data set [2] (Mus musculus, P388, ip, 120 h), the response vs control in vivo at 60 mg/kg was 154% and the response vs control in vivo at 120 mg/kg was 164%.

On to `O=C(Nc1c[nH]c2ccccc12)n1cc(F)c(=O)[nH]c1=O` [Experiment 3], for which, in data set [1], the LD50 is greater than 400 mg/kg. Also, in data set [2] (setting [3]), the response vs control in vivo at 30 mg/kg was 123%. In addition, in data set [2] (Mus musculus, P388, ip, 120 h), the response vs control in vivo at 60 mg/kg was 135%, the response vs control in vivo at 120 mg/kg was 136% and the response vs control in vivo at 400 mg/kg came out at 153%.

As for `O=C(NCCCCC[n+]1ccccc1)n1cc(F)c(=O)[nH]c1=O` [Experiment 16, 5-Fluoro-3,4-dihydro-2,4-dioxo-N-[5-(1-pyridinio)pentyl]-1(2H-pyrimidinecarboxamide bromide], the LD50 in data set [1] was 60 mg/kg. In addition, in data set [2] (Mus musculus, P388, ip, 120 h), the response vs control in vivo at 7.5 mg/kg was found to be 112% and the response vs control in vivo at 15 mg/kg was found to be 120%. The response vs control in vivo at 30 mg/kg in data set [2] (setting [3]) amounted to 120%.

Molecule `O=C(NCc1c[nH]c2ccccc12)n1cc(F)c(=O)[nH]c1=O` [Experiment 4] came in with an LD50 in data set [1] greater than 400 mg/kg. Moreover, the response vs control in vivo at 30 mg/kg in data set [2] (setting [3]) stood at 117%. In addition, in data set [2] (Mus musculus, P388, ip, 120 h), the response vs control in vivo at 60 mg/kg came out at 115%, the response vs control in vivo at 120 mg/kg worked out at 118% and the response vs control in vivo at 400 mg/kg was 128%.

For the origin of these results see patent publication US4792607A, “5-fluoro-3,4-dihydro-2,4-dioxo-N-(3-indolyl)-1(2H)-pyrimidinecarboxamides” (Chisso Corporation, priority 1986, dated 1988).
